Like-named read-outs stand apart in the source and are kept apart here.
Legend:
[1] = ref [6],[7],[8]; cited from earlier work
[2] = test system: plasma proteins (mainly albumin); conditions: cited from earlier work
clinical = conditions: human, in vivo, iv
[3] = in vivo
[4] = test system: staphylococci and streptococci; assay: PK/PD evaluation: observed PK versus EUCAST breakpoint MIC, adjusted by 93% protein binding; conditions: MIC 0.125 mg/L
Description: (§1) T > MIC was calculated based on the terminal t1/2 for each patient as a possible marker of the long-term prophylactic effect.

[5] = test system: staphylococci and streptococci; conditions: in vivo
Description: as §1

[6] = test system: plasma proteins (mainly albumin); conditions: cited from earlier work; remark: listed apart in the source
Description: Currently, off-label use at high dosages for osteoarticular infections deserves attention. […] AUC0-1w/MIC and, partic ...

MRSA = assay: Vancomycin MIC of patient isolates by ETEST; type: cell-based, Staphylococcus aureus; conditions: isolates of individual patients
MSSA = assay: Vancomycin MIC of patient isolates by ETEST; type: cell-based, Staphylococcus aureus; conditions: isolates of individual patients

SMILES | half-life (t1/2) [1] | binding to plasma proteins [2] | half-life (clinical) | half-life (clinical; 1500 mg) | Cmax (clinical; 1500 mg, C max) | t1/2 reached in multiphasic profile [3] | median AUC0-2w/MIC ratio ([4]; dual dose regimen) | median AUC0-2w/MIC ratio ([4]; single dose regimen) | AUC0-2w/MIC adjusted by 93% protein binding, all patients ([5]; human) | AUC0-2w/MIC relative to previously suggested cut-off of 1000 (for staphylococci) [5] | T > MIC in all patients [5] | binding to plasma proteins [6] | MIC for Vancom. (MRSA) | MIC for Vancom. (MSSA)
CN[C@H]1C(=O)N[C@@H]2Cc3ccc(cc3)Oc3cc4cc(c3O[C@@H]3O[C@H](C(=O)O)[C@@H](O)[C@H](O)[C@H]3NC(=O)CCCCCCCCC(C)C)Oc3ccc(cc3Cl)[C@@H](O)[C@@H]3NC(=O)[C@H](NC(=O)[C@@H]4NC(=O)[C@@H](NC2=O)c2cc(cc(O)c2Cl)Oc2cc1ccc2O)c1ccc(O)c(c1)-c1c(O[C@H]2O[C@H](CO)[C@@H](O)[C@H](O)[C@@H]2O)cc(O)cc1[C@@H](C(=O)NCCCN(C)C)NC3=O [DBV, Dalbavancin] | around 9 days | ~98% | 26.1 days | 21.9 days | 390 µg/mL | higher than 500 h | 31,366 | 20,590 | higher than 17,000 | at least 8 folds | higher than 6 weeks | 93% |  | 
CN[C@H](CC(C)C)C(=O)N[C@H]1C(=O)N[C@@H](CC(N)=O)C(=O)N[C@H]2C(=O)N[C@H]3C(=O)N[C@H](C(=O)N[C@H](C(=O)O)c4cc(O)cc(O)c4-c4cc3ccc4O)[C@H](O)c3ccc(c(Cl)c3)Oc3cc2cc(c3O[C@@H]2O[C@H](CO)[C@@H](O)[C@H](O)[C@H]2O[C@H]2C[C@](C)(N)[C@H](O)[C@H](C)O2)Oc2ccc(cc2Cl)[C@H]1O [Vancomycin, vancomycin] |  |  |  |  |  |  |  |  |  |  |  |  | 1 µg/mL | ≤0.5 µg/mL

Reference: PMC8533485 (Biomedicines, 2021)
